In ChEMBL document CHEMBL4000245, “Discovery and biological evaluation of some (1H-1,2,3-triazol-4-yl)methoxybenzaldehyde derivatives containing an anthraquinone moiety as potent xanthine oxidase inhibitors” (Bioorg Med Chem Lett, 2017):

Experiments:
[1] = biological target: T1, Xanthine dehydrogenase/oxidase (Bos taurus, UniProt P80457); test: Inhibition of bovine xanthine oxidase assessed as reduction in uric acid levels at 50 uM using xanthine as substrate after 120 mins by spectrophotometry; settings: cattle, 2 h
[2] = biological target: T1, Xanthine dehydrogenase/oxidase; test: Inhibition of bovine xanthine oxidase assessed as reduction in uric acid levels using xanthine as substrate after 120 mins by spectrophotometry
[3] = biological target: T1, Xanthine dehydrogenase/oxidase; test: Potency index, ratio of allopurinol IC50 to compound IC50 for inhibition of bovine xanthine oxidase; settings: cattle
[4] = biological target: T1, Xanthine dehydrogenase/oxidase; test: Mixed-type inhibition of bovine xanthine oxidase assessed as enzyme-inhibitor complex using xanthine as substrate after 60 secs by Lineweaver-Burk plot method
[5] = biological target: T1, Xanthine dehydrogenase/oxidase; test: Mixed-type inhibition of bovine xanthine oxidase assessed as enzyme-inhibitor-substrate complex using xanthine as substrate after 60 secs by Lineweaver-Burk plot method

T1 sequence (P80457 whole entry): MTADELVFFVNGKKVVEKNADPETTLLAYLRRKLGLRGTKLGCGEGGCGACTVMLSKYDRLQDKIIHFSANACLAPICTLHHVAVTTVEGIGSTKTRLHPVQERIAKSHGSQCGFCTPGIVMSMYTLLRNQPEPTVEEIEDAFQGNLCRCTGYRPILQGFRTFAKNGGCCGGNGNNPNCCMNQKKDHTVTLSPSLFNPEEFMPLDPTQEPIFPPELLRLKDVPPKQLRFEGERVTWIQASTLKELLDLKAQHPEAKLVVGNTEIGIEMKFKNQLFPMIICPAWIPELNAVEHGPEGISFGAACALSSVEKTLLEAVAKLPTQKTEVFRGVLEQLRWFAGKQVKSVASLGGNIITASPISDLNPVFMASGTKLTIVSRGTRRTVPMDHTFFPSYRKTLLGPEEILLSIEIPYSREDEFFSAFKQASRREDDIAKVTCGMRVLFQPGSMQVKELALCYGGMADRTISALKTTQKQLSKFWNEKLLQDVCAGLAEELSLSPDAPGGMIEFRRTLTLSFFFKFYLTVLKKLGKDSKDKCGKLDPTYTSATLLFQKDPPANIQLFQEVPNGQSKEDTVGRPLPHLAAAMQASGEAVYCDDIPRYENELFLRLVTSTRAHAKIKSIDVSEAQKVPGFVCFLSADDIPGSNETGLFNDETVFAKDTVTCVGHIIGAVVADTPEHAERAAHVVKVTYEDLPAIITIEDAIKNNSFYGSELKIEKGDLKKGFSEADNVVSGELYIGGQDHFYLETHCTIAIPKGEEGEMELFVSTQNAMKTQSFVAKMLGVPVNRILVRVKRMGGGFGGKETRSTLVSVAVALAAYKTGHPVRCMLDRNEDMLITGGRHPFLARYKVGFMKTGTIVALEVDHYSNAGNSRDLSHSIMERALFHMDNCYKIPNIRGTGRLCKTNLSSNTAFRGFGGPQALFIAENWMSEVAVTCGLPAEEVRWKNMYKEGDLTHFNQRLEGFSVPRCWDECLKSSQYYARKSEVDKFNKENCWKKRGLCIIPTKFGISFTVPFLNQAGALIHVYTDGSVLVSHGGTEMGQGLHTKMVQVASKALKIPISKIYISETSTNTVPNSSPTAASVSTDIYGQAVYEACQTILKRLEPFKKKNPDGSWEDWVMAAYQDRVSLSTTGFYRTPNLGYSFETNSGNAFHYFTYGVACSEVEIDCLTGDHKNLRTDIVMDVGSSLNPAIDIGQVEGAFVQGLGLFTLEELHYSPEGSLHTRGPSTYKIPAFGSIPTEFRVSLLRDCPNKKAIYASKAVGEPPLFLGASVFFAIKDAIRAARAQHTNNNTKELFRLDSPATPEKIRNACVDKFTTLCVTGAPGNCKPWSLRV

inhibition at 50 µM [1] [%] | IC50 [2] [µM] | SMILES | other results
24.2 | – | O=C(O)c1ccccc1OCc1cn(Cc2ccc3c(c2)C(=O)c2ccccc2C3=O)nn1 | –
20.1 | – | CC(=O)Nc1ccc(OCc2cn(Cc3ccc4c(c3)C(=O)c3ccccc3C4=O)nn2)cc1 | –
19.4 | – | CC(=O)OCc1cn(Cc2ccc3c(c2)C(=O)c2ccccc2C3=O)nn1 | –
67.5 | 30.5 | O=Cc1ccc(OCc2cn(Cc3ccc4c(c3)C(=O)c3ccccc3C4=O)nn2)cc1 | –
88 | 0.8 | O=Cc1cc(F)ccc1OCc1cn(Cc2ccc3c(c2)C(=O)c2ccccc2C3=O)nn1 | Ratio IC50 [3]: > 10
31 | – | O=C1c2ccccc2C(=O)c2cc(Cn3cc(CO)nn3)ccc21 | –
18.4 | – | O=C1c2ccccc2C(=O)c2cc(Cn3cc(COc4ccccc4)nn3)ccc21 | –

The next lines start with the compound.

SMILES | inhibition at 50 µM [1] [%] | IC50 [2] [µM] | other results
O=C1c2ccccc2C(=O)c2cc(Cn3cc(COc4c(Cl)cccc4Cl)nn3)ccc21 | 12.7 | – | –
CCCCCCn1cc(COc2ccc(F)cc2C=O)nn1 | 93 | 9 | –
O=Cc1cc(Br)ccc1OCc1cn(Cc2ccc3c(c2)C(=O)c2ccccc2C3=O)nn1 | 21.1 | – | –
CCCCCCn1cc(COc2ccccc2C=O)nn1 | 43.5 | – | –
O=Cc1cccc(OCc2cn(Cc3ccc4c(c3)C(=O)c3ccccc3C4=O)nn2)c1 | 77.2 | 15.1 | –
O=Cc1ccccc1OCc1cn(Cc2ccc3c(c2)C(=O)c2ccccc2C3=O)nn1 | 90.7 | 0.6 | Ratio IC50 [3]: > 10; Ki [4]: 570 nM; Ki [5]: 940 nM
N#Cc1ccc(OCc2cn(Cc3ccc4c(c3)C(=O)c3ccccc3C4=O)nn2)cc1 | 7 | – | –
O=Cc1ccccc1OCc1cn(Cc2ccccc2)nn1 | 46.7 | – | –
O=Cc1cc(Cl)ccc1OCc1cn(Cc2ccc3c(c2)C(=O)c2ccccc2C3=O)nn1 | 61.1 | 46.5 | –
CCN(CC)c1ccc(C=O)c(OCc2cn(Cc3ccc4c(c3)C(=O)c3ccccc3C4=O)nn2)c1 | 9.8 | – | –
Oc1ncnc2[nH]ncc12 [ALLOPURINOL] | 95.1 | – | –
O=Cc1cc(F)ccc1OCc1cn(Cc2ccccc2)nn1 | 83.4 | 21.5 | –
COc1cc(C=O)cc(OC)c1OCc1cn(Cc2ccc3c(c2)C(=O)c2ccccc2C3=O)nn1 | 70.3 | 16.8 | –
O=Cc1ccc(F)cc1OCc1cn(Cc2ccc3c(c2)C(=O)c2ccccc2C3=O)nn1 | 70.8 | 6.5 | –
